Like-named read-outs stand apart in the source and are kept apart here.
Key:
Type in all cases: cell-based
[1] = system: mouse macrophage cell line RAW264.7 cells; assay: Suppressive action on production of cytokine from LPS stimulated macrophage (BioPlex cytokine assay); conditions: 100 nM + LPS 10 ng/mL, overnight
Method: A suppressive effect of test compound 1 (compound 72 of Reference Example B66) on the production of various cytokines by lipopolysaccharide (LPS), which is a TLR4 agonist, using mouse macrophage cell line RAW264.7 cells was examined. The day before the experiment, the cells were suspended to 1×10^6 cells/mL in RPMI1640 medium supplemented with 10% inactivated fetal bovine serum, plated on a 96 well microplate at 0.1 mL/well and incubated at 37° C., 5% CO2/95% air overnight. The medium was changed, and test compound 1 (final concentration 100 nM) and LPS (final concentration 10 ng/mL) were added. After overnight culture, the content of cytokine in the culture supernatant was quantified by BioPlex cytokine assay (Bio-Rad). Test compound 1 was dissolved in dimethyl sulfoxide (DMSO) to 10 mM, diluted with RPMI1640 medium supplemented with 1% inactivated fetal bovine serum to 0.1 mM, further diluted with the medium to 10-fold concentration of the final concentration and 1/10 thereof was added.

[2] = system: Peripheral Blood Mononuclear Cells; assay: Influence on binding of LPS to PBMC (flow cytometry); conditions: 10 μM; 4° C. 30 min, then labeled LPS 50 ng/mL, 1% human serum, 37° C. 45 min; FIG. 2
Source text: FIG. 2 is a graph showing the effects of test compound 1, anti-CD14 antibody and anti-CCR5 antibody on the binding of LPS to PBMC. With an average of triplicate measurement values of LPS alone as 100%, % averages of triplicate measurement values of other groups are shown, mean±standard error (Experimental Example 6, results of 4 independent tests using PBMC obtained from the blood of different 4 subjects).
Peripheral Blood Mononuclear Cells were Separated by a conventional method, and reacted with test compound 1 (compound 72 of Reference Example B66), anti-human CD14 monoclonal antibody MEM-18 and anti-human CCR5 monoclonal antibody 2D7 (negative control) at 4° C. for 30 min. The cells were reacted with fluorescence label LPS (E. coli O55:B5, Alexa Fluor® 488-labeled, 50 ng/mL) in the presence of 1% human serum at 37° C. for 45 min. The cells (10,000 cells) were washed and the binding of fluorescence label LPS was examined by flow cytometry.

[3] = system: mouse macrophage cell line RAW264.7 cells; assay: Suppressive action on production of mediator from LPS stimulated macrophage; conditions: LPS 10 ng/ml, overnight culture
Method: A suppressive effect of test compound 1 (compound 72 of Reference Example B66) on the production of various mediators by lipopolysaccharide (LPS), which is a TLR4 agonist, using mouse macrophage cell line RAW264.7 cells was examined. The day before the experiment, the cells were suspended to 5×10^5 cells/mL in RPMI1640 medium supplemented with 10% inactivated fetal bovine serum, plated on a 96 well microplate at 0.2 mL/well and incubated at 37° C., 5% CO2/95% air overnight. The medium was changed to RPMI1640 medium supplemented with 1% inactivated fetal bovine serum, and test compound 1 and LPS (final concentration 10 ng/ml) was added. After overnight culture, cytokine, chemokine, prostaglandin E2 in the culture supernatant was quantified by ELISA, and nitrite ion (stable metabolite of NO) concentration was quantified by a fluorescence method using 2,3-diaminonaphthalene. Test compound 1 was dissolved in N,N-dimethylformamide to 10 mM, diluted with RPMI1640 medium supplemented with 1% inactivated fetal bovine serum to 0.1 mM, further diluted with the medium to 10-fold concentration of the final concentration and 1/10 thereof was added. Test compound 1 suppressed almost all the examined mediator production at an equivalent IC50.

CCOC(=O)C1=CCCC[C@H]1S(=O)(=O)Nc1ccc(F)cc1Cl [test compound 1, ethyl (6R)-6-[(2-chloro-4-fluoroanilino)sulfonyl]-1-cyclohexene-1-carboxylate]
expression amount of cytokines: IL1beta ([1]; control 0, LPS 97): 2 pg/mL
expression amount of cytokines: IL12(p40) ([1]; control 3, LPS 18): 4 pg/mL
expression amount of cytokines: IL2 ([1]; control 3, LPS 20): 8 pg/mL
expression amount of cytokines: IL3 ([1]; control 3, LPS 22): 3 pg/mL
expression amount of cytokines: IFNgamma ([1]; control 9, LPS 31): 8 pg/mL
expression amount of cytokines: IL17 ([1]; control 9, LPS 50): 13 pg/mL
expression amount of cytokines: KC ([1]; control 10, LPS 79): 22 pg/mL
expression amount of cytokines: IL12(p70) ([1]; control 12, LPS 48): 13 pg/mL
expression amount of cytokines: IL1alpha ([1]; control 21, LPS 74): 47 pg/mL
expression amount of cytokines: IL10 ([1]; control 25, LPS 80): 20 pg/mL
expression amount of cytokines: RANTES ([1]; control 31, LPS 1520): 48 pg/mL
expression amount of cytokines: TNFalpha ([1]; control 48, LPS 10483): 125 pg/mL
expression amount of cytokines: GM-CSF ([1]; control 53, LPS 135): 85 pg/mL
expression amount of cytokines: IL6 ([1]; control 82, LPS 233): 152 pg/mL
binding of fluorescence label LPS to PBMC [2]: completely failed to inhibit
IC50 ([3]; ELISA, read-out: IC50, IL-1α production): 1.1 nM
IC50 ([3]; ELISA, read-out: IC50, IL-6 production): 2 nM
IC50 ([3]; ELISA, read-out: IC50, IL-10 production): 1.6 nM
IC50 ([3]; ELISA, read-out: IC50, MIP-2 production): 7.1 nM
IC50 ([3]; ELISA, read-out: IC50, PGE2 production): 4 nM
IC50 ([3]; ELISA, read-out: IC50, TNF-α production): 3.1 nM
IC50 ([3]; fluorescence method with 2,3-diaminonaphthalene, read-out: IC50, NO production (nitrite ion)): 1.8 nM

From US20090062355A1, “Pharmaceutical Product” (Takeda Pharmaceutical Company Limited, priority 2006, published 2009)
